Where a SMILES comes first, the peptide text is derived from it. Bridges are numbered along the chain shown (N, C = ends). [ ]: non-standard residue; d: D form. The star is where a group is joined. hPhe(3-Cl-4-CF3) = N[C@@H](CCc1ccc(C(F)(F)F)c(Cl)c1)C(=O)O; NPrPhe(4-CF3) = CCCN[C@@H](Cc1ccc(C(F)(F)F)cc1)C(=O)O; NMeGly(cPent) = CN[C@H](C(=O)O)C1CCCC1; Pro(4,4-F2) = O=C(O)[C@@H]1CC(F)(F)CN1; Hyp = O=C(O)[C@@H]1C[C@@H](O)CN1; NMeD = CN[C@@H](CC(=O)O)C(=O)O; NMeL = CN[C@@H](CC(C)C)C(=O)O; N(Me)CH2CH2OMe = COCCN(C)*; Ac6c = NC1(C(=O)O)CCCCC1; Morpholide = C1CN(*)CCO1; NMeA = CN[C@@H](C)C(=O)O; Ac5c = NC1(C(=O)O)CCCC1; Aze = O=C(O)[C@@H]1CCN1; NPrGly = CCCNCC(=O)O; NEtG = CCNCC(=O)O; Sar = CNCC(=O)O
Columns and labels:
[1] = molecular target: GDP-bound NRAS wild-type protein (Homo sapiens, UniProt P01111); assay: Binding to NRAS by surface plasmon resonance (SPR), KD and KD ratio to KRAS
Outline: (§1)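 SPR, 30°C: Avi-biotin RAS·GDP captured via Biotin CAPture (~100–300 RU); running buffer HBS pH 7.4, 1 mM DTT, 10 mM MgCl2, 0.01% Tween 20, 10 µM GDP, 4% DMSO. Single-cycle kinetics, 100 µL/min, 75 s injections; 1:1 model → KD.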

[2] = molecular target: HRAS wild-type protein (Homo sapiens, UniProt P01112); assay: Binding to HRAS by surface plasmon resonance (SPR), KD and KD ratio to KRAS
Outline: as §1

[3] = system: human lung cancer strain NCI-H441; format: cell-based
Outline: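 Proliferation was scored by […] measured after the reagent was added to cultures kept at 37°C in 5% carbon dioxide.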

[4] = ratio of KD for GDP-bound NRAS wild-type protein to KD for KRAS
[5] = ratio of KD for HRAS wild-type protein to KD for KRAS
[6] = ratio of the KD value with respect to GDP-bound NRAS wild-type protein to the KD value with respect to KRAS
[7] = ratio of the KD value with respect to HRAS wild-type protein to the KD value with respect to KRAS

Chain of HRAS wild-type protein (P01112 whole entry): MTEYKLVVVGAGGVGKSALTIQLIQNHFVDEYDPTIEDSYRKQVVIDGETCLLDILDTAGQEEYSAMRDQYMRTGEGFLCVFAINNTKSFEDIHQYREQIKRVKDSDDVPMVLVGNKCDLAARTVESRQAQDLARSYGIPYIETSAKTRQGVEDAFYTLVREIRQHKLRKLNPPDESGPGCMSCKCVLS
Chain of GDP-bound NRAS wild-type protein (P01111 whole entry): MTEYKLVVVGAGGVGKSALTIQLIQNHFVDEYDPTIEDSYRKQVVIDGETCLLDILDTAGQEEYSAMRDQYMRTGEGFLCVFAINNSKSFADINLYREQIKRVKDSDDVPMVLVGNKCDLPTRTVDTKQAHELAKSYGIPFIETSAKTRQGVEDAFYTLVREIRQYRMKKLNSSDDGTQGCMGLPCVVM

| IC50 [3] | SMILES | NRAS /KRAS [1, 4] | HRAS /KRAS [2, 5] | NRAS /KRAS [1, 6] | HRAS /KRAS [2, 7] |
| --- | --- | --- | --- | --- | --- |
| 0.0011 µM | CCCN1C(=O)CN(C)C(=O)CN(C)C(=O)[C@H]([C@@H](C)CC)NC(=O)[C@H](CC(C)C)N(C)C(=O)C[C@@H](C(=O)N(C)CCOC)N(C)C(=O)[C@H](C2CCCC2)N(C)C(=O)C2(CCCC2)NC(=O)[C@@H]2CCCN2C(=O)[C@H](CCc2ccc(C(F)(F)F)c(Cl)c2)NC(=O)CN(C)C(=O)[C@@H]1Cc1ccc(C(F)(F)F)cc1 [PP0391] ([NMeL]I[Sar][Sar][NPrPhe(4-CF3)][Sar][hPhe(3-Cl-4-CF3)]P[Ac5c][NMeGly(cPent)][NMeD]-{N(Me)CH2CH2OMe}; lactam N-11) |  |  | B (a compound having 3 or more and less than 10 is denoted as B) | B (a compound having 3 or more and less than 10 is denoted as B) |
| 0.0116 µM | CCCN1C(=O)[C@@H]2CCN2C(=O)[C@H](C)N(C)C(=O)[C@H]([C@@H](C)CC)NC(=O)[C@H](CC(C)C)N(C)C(=O)C[C@@H](C(=O)N2CCOCC2)N(C)C(=O)[C@H](C2CCCC2)N(C)C(=O)C2(CCCC2)NC(=O)[C@H](C)NC(=O)[C@H](CCc2ccc(C(F)(F)F)c(Cl)c2)NC(=O)CN(C)C(=O)[C@@H]1Cc1ccc(C(F)(F)F)cc1 [PP0153] ([NMeL]I[NMeA][Aze][NPrPhe(4-CF3)][Sar][hPhe(3-Cl-4-CF3)]A[Ac5c][NMeGly(cPent)][NMeD]-Morpholide; lactam N-11) | C (A compound having a KD ratio of 0.1 or more and less than 3 is denoted as C) | C (A compound having a KD ratio of 0.1 or more and less than 3 is denoted as C) |  |  |
| 0.148 µM | CCCN1CC(=O)NC2(CCCC2)C(=O)N(C)[C@@H](C2CCCC2)C(=O)N(C)[C@H](C(=O)N2CCOCC2)CC(=O)N(C)[C@@H](CC(C)C)C(=O)N[C@@H]([C@@H](C)CC)C(=O)N2CC[C@H]2C(=O)N(C)CC(=O)N(CCC)[C@@H](Cc2ccc(C(F)(F)F)cc2)C(=O)N(C)CC(=O)N[C@@H](CCc2ccc(C(F)(F)F)c(Cl)c2)C1=O [PP0315] ([NMeL]I[Aze][Sar][NPrPhe(4-CF3)][Sar][hPhe(3-Cl-4-CF3)][NPrGly][Ac5c][NMeGly(cPent)][NMeD]-Morpholide; lactam N-11) | B (a compound having 3 or more and less than 10 is denoted as B) | B (a compound having 3 or more and less than 10 is denoted as B) |  |  |
| 0.0195 µM | CCO[C@@H]1C[C@H]2C(=O)NC3(CCC3)C(=O)N(C)[C@@H](C3CCCC3)C(=O)N(C)[C@H](C(=O)N(C)C)CC(=O)N(C)[C@@H](CC)C(=O)N[C@@H]([C@@H](C)CC)C(=O)NCC(=O)N(C)[C@H]3C/C=C\CCN(C3=O)[C@@H](Cc3ccc(C(F)(F)F)cc3)C(=O)N(C)CC(=O)N[C@@H](CCc3cc(F)c(C(F)(F)F)c(F)c3)C(=O)N2C1 [PP0983] | A (a compound having 10 or more and less than 20 is denoted as A) | A (a compound having 10 or more and less than 20 is denoted as A) |  |  |
| 0.0131 µM | CCCN1C(=O)CN(C)C(=O)CN(C)C(=O)[C@H]([C@@H](C)CC)NC(=O)[C@H](CC(C)C)N(C)C(=O)C[C@@H](C(=O)N2CCOCC2)N(C)C(=O)[C@H](C2CCCC2)N(C)C(=O)C2(CCCCC2)NC(=O)[C@@H]2CCCN2C(=O)[C@H](CCc2ccc(C(F)(F)F)c(Cl)c2)NC(=O)CN(C)C(=O)[C@@H]1Cc1ccc(C(F)(F)F)cc1 [PP0231] ([NMeL]I[Sar][Sar][NPrPhe(4-CF3)][Sar][hPhe(3-Cl-4-CF3)]P[Ac6c][NMeGly(cPent)][NMeD]-Morpholide; lactam N-11) | B (a compound having 3 or more and less than 10 is denoted as B) | C (A compound having a KD ratio of 0.1 or more and less than 3 is denoted as C) |  |  |
| 0.0103 µM | CCO[C@@H]1C[C@H]2C(=O)NC3(CCC3)C(=O)N(C)[C@@H](C3CCCC3)C(=O)N(C)[C@H](C(=O)N(C)C)CC(=O)N(C)[C@@H](CC)C(=O)N[C@@H]([C@@H](C)CC)C(=O)N(C)CC(=O)N(C)[C@H]3CCCCN(C3=O)[C@@H](Cc3ccc(C(F)(F)F)cc3)C(=O)N(C)CC(=O)N[C@@H](CCc3cc(Cl)c(Cl)c(Cl)c3)C(=O)N2C1 [PP0988] | C (A compound having a KD ratio of 0.1 or more and less than 3 is denoted as C) | B (a compound having 3 or more and less than 10 is denoted as B) |  |  |
| 0.0689 µM | CCCN1C(=O)CN(C)C(=O)CN(CC)C(=O)[C@H]([C@@H](C)CC)NC(=O)[C@H](CC(C)C)N(C)C(=O)C[C@@H](C(=O)N(C)C)NC(=O)[C@H](C2CCCC2)N(C)C(=O)C2(CCCC2)NC(=O)[C@@H]2CC(F)(F)CN2C(=O)[C@H](CCc2ccc(C(F)(F)F)c(Cl)c2)NC(=O)CN(C)C(=O)[C@@H]1Cc1ccc(C(F)(F)F)cc1 [PP0369] ([NMeL]I[NEtG][Sar][NPrPhe(4-CF3)][Sar][hPhe(3-Cl-4-CF3)][Pro(4,4-F2)][Ac5c][NMeGly(cPent)]D-NMe2; lactam N-11) | B (a compound having 3 or more and less than 10 is denoted as B) | C (A compound having a KD ratio of 0.1 or more and less than 3 is denoted as C) |  |  |
| 0.0446 µM | CCO[C@@H]1C[C@H]2C(=O)NC3(CCCC3)C(=O)N(C)[C@@H](C3CCCC3)C(=O)N(C)[C@H](C(=O)N(C)C)CC(=O)N(C)[C@@H](C)C(=O)N[C@@H]([C@@H](C)CC)C(=O)N(C)CC(=O)N(C)[C@H]3C/C=C\CCN(C3=O)[C@@H](Cc3ccc(C(F)(F)F)cc3)C(=O)N(C)CC(=O)N[C@@H](CCc3cc(F)c(C(F)(F)F)c(F)c3)C(=O)N2C1 [PP1104] | A (a compound having 10 or more and less than 20 is denoted as A) | A (a compound having 10 or more and less than 20 is denoted as A) |  |  |
| 0.0022 µM | CCCN1C(=O)CN(C)C(=O)CN(CC)C(=O)[C@H]([C@@H](C)CC)NC(=O)[C@H](CC(C)C)N(C)C(=O)C[C@@H](C(=O)N(C)C)N(C)C(=O)[C@H](C2CCCC2)N(C)C(=O)C2(CCCC2)NC(=O)[C@@H]2C[C@@H](OCC)CN2C(=O)[C@H](CCc2ccc(C(F)(F)F)c(Cl)c2)NC(=O)CN(C)C(=O)[C@@H]1Cc1ccc(C(F)(F)F)cc1 [PP0427] ([NMeL]I[NEtG][Sar][NPrPhe(4-CF3)][Sar][hPhe(3-Cl-4-CF3)][Hyp](Et)[Ac5c][NMeGly(cPent)][NMeD]-NMe2; lactam N-11) |  |  | B (a compound having 3 or more and less than 10 is denoted as B) | C (A compound having a KD ratio of 0.1 or more and less than 3 is denoted as C) |
| 0.116 µM | CCO[C@@H]1C[C@H]2C(=O)NC3(CCC3)C(=O)N(C)[C@@H](C3CCCC3)C(=O)N(CC)[C@H](C(=O)N(C)C)CC(=O)N(C)[C@@H](CC)C(=O)N[C@@H]([C@@H](C)CC)C(=O)N(C)CC(=O)N(C)[C@H]3CCCCCN(C3=O)[C@@H](Cc3ccc(C(F)(F)F)cc3)C(=O)N(C)CC(=O)N[C@@H](CCc3cc(F)c(C(F)(F)F)c(F)c3)C(=O)N2C1 [PP0633] |  |  | B (a compound having 3 or more and less than 10 is denoted as B) | B (a compound having 3 or more and less than 10 is denoted as B) |
| 0.0244 µM | CC[C@H](C)[C@@H]1NC(=O)[C@H](C)N(C)C(=O)C[C@@H](C(=O)N(C)C)N(C)C(=O)[C@H](C2CCCC2)N(C)C(=O)C2(CCCC2)NC(=O)[C@@H]2CC(F)(F)CN2C(=O)[C@H](CCc2cc(F)c(C(F)(F)F)c(F)c2)NC(=O)CN(C)C(=O)[C@H](Cc2ccc(C(F)(F)F)cc2)N2CCCCC[C@@H](C2=O)N(C)C(=O)CN(C)C1=O [PP0472] |  |  | B (a compound having 3 or more and less than 10 is denoted as B) | B (a compound having 3 or more and less than 10 is denoted as B) |
| 0.0255 µM | CCO[C@@H]1C[C@H]2C(=O)NC3(CCC3)C(=O)N(C)[C@@H](C3CCCC3)C(=O)N(C)[C@H](C(=O)N(C)C)CC(=O)N(C)[C@@H](CSC)C(=O)N[C@@H]([C@@H](C)CC)C(=O)N(C)CC(=O)N(C)[C@H]3C/C=C\CCN(C3=O)[C@@H](Cc3ccc(C(F)(F)F)cc3)C(=O)N(C)CC(=O)N[C@@H](CCc3cc(F)c(C(F)(F)F)c(F)c3)C(=O)N2C1 [PP1119] | A (a compound having 10 or more and less than 20 is denoted as A) | A (a compound having 10 or more and less than 20 is denoted as A) |  |  |
| 0.0207 µM | CC[C@H](C)[C@@H]1NC(=O)[C@H](COC)N(C)C(=O)C[C@@H](C(=O)N2CCOCC2)N(C)C(=O)[C@H](C2CCCC2)N(C)C(=O)C2(CCC2)NC(=O)[C@@H]2CC(F)(F)CN2C(=O)[C@H](CCc2cc(F)c(C(F)(F)F)c(F)c2)NC(=O)CN(C)C(=O)[C@H](Cc2ccc(C(F)(F)F)cc2)N2CCCCC[C@@H](C2=O)N(C)C(=O)CNC1=O [PP0861] | B (a compound having 3 or more and less than 10 is denoted as B) | B (a compound having 3 or more and less than 10 is denoted as B) |  |  |
| 0.106 µM | CCC(CC)[C@H]1C(=O)N(C)[C@H](C(=O)N(C)C)CC(=O)N(C)[C@@H](COC)C(=O)N[C@@H]([C@@H](C)CC)C(=O)N(C)CC(=O)N(C)[C@H]2C/C=C\CCN(C2=O)[C@@H](Cc2ccc(C(F)(F)F)cc2)C(=O)N(C)CC(=O)N[C@@H](CCc2cc(F)c(C(F)(F)F)c(F)c2)C(=O)N2CCCC[C@H]2C(=O)NC2(CC(C)(C)C2)C(=O)N1C [PP2916] | A (a compound having 10 or more and less than 20 is denoted as A) | A (a compound having 10 or more and less than 20 is denoted as A) |  |  |

| SMILES | IC50 [3] | NRAS /KRAS [1, 4] | HRAS /KRAS [2, 5] | NRAS /KRAS [1, 6] | HRAS /KRAS [2, 7] |
| --- | --- | --- | --- | --- | --- |
| CCC[C@H]1C(=O)N[C@@H]([C@@H](C)CC)C(=O)N(C2CC2)CC(=O)N(C)[C@H]2C/C=C\CCN(C2=O)[C@@H](Cc2ccc(C)cc2)C(=O)N(C)CC(=O)N[C@@H](CCc2cc(F)c(C(F)(F)F)c(F)c2)C(=O)N2C[C@H](OCC)C[C@H]2C(=O)N(C)C2(CCC2)C(=O)N(C)[C@@H](C2CCCC2)C(=O)N(C)[C@H](C(=O)N2CCCCC2)CC(=O)N1C [PP3111] | 0.0178 µM | A (a compound having 10 or more and less than 20 is denoted as A) | A (a compound having 10 or more and less than 20 is denoted as A) |  |  |
